Source: ChEMBL document CHEMBL4813909, “Heterocyclic Diamidine DNA Ligands as HOXA9 Transcription Factor Inhibitors: Design, Molecular Evaluation, and Cellular Consequences in a HOXA9-Dependant Leukemia Cell Model” (J Med Chem, 2019)
Activity calls are given as the source filed them. The rule behind the calls is not given here.

What was measured:
[1] = Induction of cell cycle arrest in mouse MigA9 cells expressing mouse Hoxa9 assessed as accumulation at G2/M phase at 0.5 uM incubated for 48 hrs by EdU/propidium iodide staining based flow cytometry (reference value: 4.55 +/- 0.16%); type: functional
[2] = Induction of cell death in mouse MigA9 cells harboring mouse Hoxa9 gene assessed as propidium iodide-positive cells at 1 uM incubated for 48 hrs by propidium iodide staining based flow cytometry (reference value: 8.75 +/- 0.2%); type: functional
[3] = Induction of cell cycle arrest in mouse MigA9 cells harboring mouse Hoxa9 gene assessed as accumulation at sub-G1 phase at 0.5 uM incubated for 48 hrs by propidium iodide staining based flow cytometry (reference value: 0.76 +/- 0.1%); type: functional
[4] = Induction of cell death in mouse MigA9 cells harboring mouse Hoxa9 gene assessed as propidium iodide-positive cells at 1 uM incubated for 24 hrs by propidium iodide staining based flow cytometry relative to control; type: functional
[5] = Drug localization in nucleus of mouse MigA9 cells at 20 uM incubated for 2 hrs by TO-PRO-3/propidium iodide staining based by fluorescence microscopy; type: ADME, subcellular; details: miga9, 2 h
[6] = Induction of cell cycle arrest in mouse MigA9 cells expressing mouse Hoxa9 assessed as accumulation at S phase at 1 uM incubated for 48 hrs by EdU/propidium iodide staining based flow cytometry (reference value: 46.68 +/- 0.21%); type: functional
[7] = Induction of cell cycle arrest in mouse MigA9 cells harboring mouse Hoxa9 gene assessed as accumulation at sub-G1 phase at 1 uM incubated for 48 hrs by propidium iodide staining based flow cytometry (reference value: 0.76 +/- 0.1%); type: functional
[8] = Induction of cell death in mouse MigA9 cells harboring mouse Hoxa9 gene assessed as propidium iodide-positive cells at 0.5 uM incubated for 48 hrs by propidium iodide staining based flow cytometry (reference value: 8.75 +/- 0.2%); type: functional
[9] = Induction of cell death in mouse MigA9 cells harboring mouse Hoxa9 gene assessed as propidium iodide-positive cells at 0.5 uM incubated for 24 hrs by propidium iodide staining based flow cytometry (reference value: 9.06 +/- 0.53%); type: functional
[10] = Induction of cell cycle arrest in mouse MigA9 cells expressing mouse Hoxa9 assessed as accumulation at S phase at 0.5 uM incubated for 48 hrs by EdU/propidium iodide staining based flow cytometry (reference value: 46.68 +/- 0.21%); type: functional
[11] = Induction of cell cycle arrest in mouse MigA9 cells expressing mouse Hoxa9 assessed as accumulation at G2/M phase at 1 uM incubated for 48 hrs by EdU/propidium iodide staining based flow cytometry (reference value: 4.55 +/- 0.16%); type: functional
[12] = Induction of cell cycle arrest in mouse MigA9 cells expressing mouse Hoxa9 assessed as accumulation at G0/G1 phase at 0.5 uM incubated for 48 hrs by EdU/propidium iodide staining based flow cytometry (reference value: 48.77 +/- 0.19%); type: functional
[13] = Induction of cell cycle arrest in mouse MigA9 cells expressing mouse Hoxa9 assessed as accumulation at G0/G1 phase at 1 uM incubated for 48 hrs by EdU/propidium iodide staining based flow cytometry (reference value: 48.77 +/- 0.19%); type: functional
MigA9 [14] = assay: Induction of AKAP13 gene in mouse MigA9 cells by ingenuity pathway analysis; type: functional, cell-based
MigA9 [15] = assay: Upregulation of KLF3 gene in mouse MigA9 cells by ingenuity pathway analysis; type: functional, cell-based
[16] = molecular target: Homeobox protein Hox-A9 (Mus musculus) (UniProt P09631); assay: Inhibition of HOXA9 in mouse MigA9 cells assessed as downregulation of wang-immortalised-by-hoxa9-and meis1-up genes by gene set enrichment analysis; type: cell-based
Chain of Homeobox protein Hox-A9 (Mus musculus) (P09631 whole entry, the tested form may be a part): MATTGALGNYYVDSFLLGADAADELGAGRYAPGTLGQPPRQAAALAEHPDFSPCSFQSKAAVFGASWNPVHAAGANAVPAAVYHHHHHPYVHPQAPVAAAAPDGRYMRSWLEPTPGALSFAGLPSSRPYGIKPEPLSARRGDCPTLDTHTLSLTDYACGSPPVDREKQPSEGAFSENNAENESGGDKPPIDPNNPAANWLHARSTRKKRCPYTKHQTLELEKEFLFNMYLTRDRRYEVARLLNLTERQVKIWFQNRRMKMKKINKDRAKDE

HOXA9 DNA binding site [17] = details: dose 0.5 µM
[18] = molecular target: Homeobox protein Hox-A9 (Mus musculus) (UniProt P09631); assay: Inhibition of HOXA9 in mouse MigA9 cells assessed as induction of takeda- targets-of-nup98- hoxa9-fusion-8d-dn genes by gene set enrichment analysis; type: cell-based
MigA9 [19] = assay: Upregulation of E2F1 gene in mouse MigA9 cells by ingenuity pathway analysis; type: functional, cell-based
K562 = assay: Anticlonogenic activity in human K562 cells assessed as K562 number at 2.5 uM incubated for 10 days by Methocult-colony forming cell assay relative to control; type: functional; details: time 10 day
[20] = molecular target: Homeobox protein Hox-A9 (Mus musculus) (UniProt P09631); assay: Inhibition of HOXA9 in mouse MigA9 cells assessed as induction of gabriely-mir21-targets gene by gene set enrichment analysis; type: cell-based
MigA9 [21] = assay: Upregulation of tac4 gene in mouse MigA9 cells by ingenuity pathway analysis; type: functional, cell-based
MigA9 [22] = assay: Induction of TAC4 gene in mouse MigA9 cells by ingenuity pathway analysis; type: functional, cell-based
MigA9 [23] = assay: Upregulation of DNMT3A gene in mouse MigA9 cells by ingenuity pathway analysis; type: functional, cell-based
MigA9 [24] = assay: Downregulation of onecut1 gene in mouse MigA9 cells by ingenuity pathway analysis; type: functional, cell-based
[25] = molecular target: Homeobox protein Hox-A9 (Mus musculus) (UniProt P09631); assay: Inhibition of HOXA9 in mouse MigA9 cells assessed as induction of gal-leukemic stem cell-dn genes by gene set enrichment analysis; type: cell-based
MigA9 [26] = assay: Downregulation of ARHGEF1 gene in mouse MigA9 cells by ingenuity pathway analysis; type: functional, cell-based
MigA9 [27] = assay: Upregulation of Ncoa6 gene in mouse MigA9 cells by ingenuity pathway analysis; type: functional, cell-based
[28] = molecular target: Homeobox protein Hox-A9 (Mus musculus) (UniProt P09631); assay: Inhibition of HOXA9 in mouse MigA9 cells assessed as induction of nuytten-ezh2-targets-up genes by gene set enrichment analysis; type: cell-based
MigA9 [29] = assay: Upregulation of timp2 gene in mouse MigA9 cells by ingenuity pathway analysis; type: functional, cell-based
MigA9 [30] = assay: Upregulation of DICER1 gene in mouse MigA9 cells by ingenuity pathway analysis; type: functional, cell-based
[31] = Induction of cell death in mouse MigA9 cells harboring mouse Hoxa9 gene assessed as propidium iodide-positive cells at 20 uM incubated for 24 hrs by propidium iodide staining based flow cytometry (reference value: 9.06 +/- 0.53%); type: functional; details: dose 20 µM; time 24 hrs
MigA9 [32] = assay: Upregulation of ID1 gene in mouse MigA9 cells by ingenuity pathway analysis; type: functional, cell-based
MigA9 [33] = assay: Downregulation of FGF7 gene in mouse MigA9 cells by ingenuity pathway analysis; type: functional, cell-based
[34] = system: HOXA9 DNA binding site [UNDEFINED MUTATION]
[35] = molecular target: Homeobox protein Hox-A9 (Mus musculus) (UniProt P09631); assay: Inhibition of HOXA9 in mouse MigA9 cells assessed as downregulation of martens-tretinoin-response-dn genes by gene set enrichment analysis; type: cell-based
HOXA9 DNA binding site [36] = details: dose 1.0 µM
MigA9 [37] = assay: Induction of ITGAM gene in mouse MigA9 cells by ingenuity pathway analysis; type: functional, cell-based
[38] = system: HOXA9 DNA binding site [UNDEFINED MUTATION]; remark: listed apart in the source
MigA9 [39] = assay: Upregulation of CEACAM1 gene in mouse MigA9 cells by ingenuity pathway analysis; type: functional, cell-based
[40] = Induction of cell cycle arrest in mouse MigA9 cells harboring mouse Hoxa9 gene assessed as accumulation at sub-G1 phase at 20 uM incubated for 48 hrs by propidium iodide staining based flow cytometry (reference value: 0.76 +/- 0.1%); type: functional
MigA9 [41] = assay: Downregulation of pim1 gene in mouse MigA9 cells by ingenuity pathway analysis; type: functional, cell-based
MigA9 [42] = assay: Downregulation of CD74 gene in mouse MigA9 cells by ingenuity pathway analysis; type: functional, cell-based
MigA9 [43] = assay: Upregulation of rgs10 gene in mouse MigA9 cells by ingenuity pathway analysis; type: functional, cell-based
MigA9 [44] = assay: Induction of CD47 gene in mouse MigA9 cells by ingenuity pathway analysis; type: functional, cell-based
MigA9 [45] = assay: Induction of IGLL1/IGLL5 gene in mouse MigA9 cells by ingenuity pathway analysis; type: functional, cell-based
[46] = Drug localization in nucleus of human HT-29 cells at 5 uM incubated for 16 hrs by DiOC6/propidium iodide staining based by fluorescence microscopy; type: ADME, subcellular; details: ht-29, 16 h
MigA9 [47] = assay: Downregulation of KLF2 gene in mouse MigA9 cells by ingenuity pathway analysis; type: functional, cell-based
MigA9 [48] = assay: Induction of TP53 gene in mouse MigA9 cells by ingenuity pathway analysis; type: functional, cell-based
[49] = Stability in mouse MigA9 cells assessed as visibility of intrinsic fluorescence measured after 10 days by fluorescence microscopy; type: ADME, cell-based; details: miga9, 240 h, time 10 day
[50] = Induction of cell death in mouse MigA9 cells harboring mouse Hoxa9 gene assessed as propidium iodide-positive cells at 15 uM incubated for 24 hrs by propidium iodide staining based flow cytometry (reference value: 9.06 +/- 0.53%); type: functional; details: dose 15 µM; time 24 hrs
MigA9 [51] = assay: Induction of PIM1 gene in mouse MigA9 cells by ingenuity pathway analysis; type: functional, cell-based
MigA9 [52] = assay: Downregulation of CTSG gene in mouse MigA9 cells by ingenuity pathway analysis; type: functional, cell-based
MigA9 [53] = assay: Induction of RGS10 gene in mouse MigA9 cells by ingenuity pathway analysis; type: functional, cell-based
[54] = Cytotoxicity against mouse MigA9 cells harboring mouse Hoxa9 gene incubated for 72 hrs by MTS assay; type: functional, cell-based; details: MigA9, 72 h
HOXA9 DNA binding site [55] = assay: Binding affinity to hairpin DNA Hoxa9-binding site 5'-biotin-CCATGATTTACCTCTGTAAATCATGG (unknown origin) by surface plasmon resonance; type: nucleic-acid assay
HOXA9 DNA binding site [56] = assay: Inhibition of HOXA9 (unknown origin) expressed in reticulocyte lysate system binding to 32P-radiolabeled DNA Hoxa9-binding site (strand a-CTGCGATGATTTACGACCGC /strand b-GCGGTCGTAAATCATCGCAG) (unknown origin) assessed as HOXA9/DNA inhibition at 2.5 to 20 uM incubated for 20 mins by electrophoretic mobility shift assay relative to control; type: subcellular; details: dose 2.5-20 µM
[57] = Induction of spectral signal at wavelength at 1 to 10 uM by circular dichroism method; type: physicochemical; details: dose 1-10 µM
[58] = system: HOXA9 DNA binding site [UNDEFINED MUTATION]; assay: Binding affinity to DNA Hoxa9-binding site-5'-ATTTA mutant (strand a-CTGCGATGAGTCACGACCGC/strand b-GCGGTCGTGACTCATCGCAG) (unknown origin) by UV/visible spectrophotometric method; type: nucleic-acid assay
[59] = system: HOXA9 DNA binding site [UNDEFINED MUTATION]; assay: Binding affinity to DNA Hoxa9-binding site-5'-ATTTA/5'ATGA double mutant (strand a-CTGCGTAGCGTCACGACCGC/strand b-GCGGTCGTGACGCTACGCAG) (unknown origin) by UV/visible spectrophotometric method; type: nucleic-acid assay

## N=C(Nc1ccc(-c2ccc(-c3ccc(NC(=N)c4ccccn4)cc3)[nH]2)cc1)c1ccccn1
[1]
  Activity: 5.5%
[2]
  Activity: 17.6%
[3]
  Activity: 1.23%
[4]
  Activity: 14.43%
[5]
  Drug transport: Active
[6]
  Activity: 43.51%
[7]
  Activity: 1.04%
[8]
  Activity: 8.01%
[9]
  Activity: 5.19%
[10]
  Activity: 46.06%
[11]
  Activity: 6.34%
[12]
  Activity: 48.44%
[13]
  Activity: 50.15%

## N=C(N)c1ccc(-c2ccc(-c3nc4ccc(C(=N)N)cc4[nH]3)s2)cc1
MigA9 [14]
  Activity: Active
MigA9 [15]
  Activity: Active
[16]
  inhibition: Active
HOXA9 DNA binding site [17]
  ΔTm: 7 °C
[18]
  inhibition: Active
MigA9 [19]
  Activity: Active
K562
  Activity: 100%
[20]
  inhibition: Active
MigA9 [21]
  Activity: Active
MigA9 [22]
  Activity: Active
MigA9 [23]
  Activity: Active
MigA9 [24]
  Activity: Active
[25]
  inhibition: Active
MigA9 [26]
  Activity: Active
MigA9 [27]
  Activity: Active
[28]
  inhibition: Active
MigA9 [29]
  Activity: Active
MigA9 [30]
  Activity: Active
[31]
  Activity: 21.07%
MigA9 [32]
  Activity: Active
MigA9 [33]
  Activity: Active
[34]
  ΔTm: 4 °C
[35]
  inhibition: Active
HOXA9 DNA binding site [36]
  ΔTm: > 10 °C
MigA9 [37]
  Activity: Active
[38]
  ΔTm: 4 °C
MigA9 [39]
  Activity: Active
[40]
  Activity: 12%
MigA9 [41]
  Activity: Active
MigA9 [42]
  Activity: Active
MigA9 [43]
  Activity: Active
MigA9 [44]
  Activity: Active
MigA9 [45]
  Activity: Active
[46]
  Drug transport: Active
MigA9 [47]
  Activity: Active
MigA9 [48]
  Activity: Active
[49]
  Stabilty: Stable
[50]
  Activity: 13.5%
MigA9 [51]
  Activity: Active
MigA9 [52]
  Activity: Active
MigA9 [53]
  Activity: Active

## N=C(N)c1cccc(-c2ccc(-c3nc4cc(C(=N)N)ccc4[nH]3)cc2)c1
HOXA9 DNA binding site [17]
  ΔTm: 7 °C
K562
  Activity: 100%
[54]
  IC50: 14.1 µM
[31]
  Activity: 5.17%
HOXA9 DNA binding site [55]
  Kd: 0.0055 µM
[34]
  ΔTm: 4 °C
HOXA9 DNA binding site [36]
  ΔTm: > 10 °C
[38]
  ΔTm: 4 °C
[40]
  Activity: 1.65%
[50]
  Activity: 3.87%

## N=C(N)c1ccc(-c2ccc(-c3nc4cc(C(=N)N)ccc4o3)o2)cc1
HOXA9 DNA binding site [56]
  inhibition: inactive
K562
  Activity: 100%
[57]
  Activity: Not Active
[54]
  IC50: > 50 µM
[31]
  Activity: 8.38%
[58]
  Activity: inactive
[59]
  Activity: inactive
[40]
  Activity: 0.92%
[46]
  Drug transport: Active
[49]
  Stabilty: Stable
[50]
  Activity: 8.89%
